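Following 48 hours of exposure in 96-well plates, responses at five concentrations were used to interpolate endpoints linearly. TGI denotes the concentration required for complete inhibition of growth.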
Assays:
Test in all cases: growth of human tumour cells (NCI), 48 h
786-0 renal = tested on: 786-0 renal
A498 renal = tested on: A498 renal
A549 NSCLC = tested on: A549 NSCLC
ACHN renal = tested on: ACHN renal
HCT-116 colon = tested on: HCT-116 colon
HCT-15 colon = tested on: HCT-15 colon
HOP-92 NSCLC = tested on: HOP-92 NSCLC
K-562 leukemia = tested on: K-562 leukemia
MALME-3M melanoma = tested on: MALME-3M melanoma
OVCAR-4 ovarian = tested on: OVCAR-4 ovarian
OVCAR-5 ovarian = tested on: OVCAR-5 ovarian
RXF 393 renal = tested on: RXF 393 renal
SF-539 CNS = tested on: SF-539 CNS
SK-MEL-5 melanoma = tested on: SK-MEL-5 melanoma
U251 CNS = tested on: U251 CNS
UO-31 renal = tested on: UO-31 renal

Structure (SMILES)	TGI (786-0 renal)	TGI (A498 renal)	TGI (A549 NSCLC)	TGI (ACHN renal)	TGI (HCT-116 colon)	TGI (HCT-15 colon)	TGI (HOP-92 NSCLC)	TGI (K-562 leukemia)	TGI (MALME-3M melanoma)	TGI (OVCAR-4 ovarian)	TGI (OVCAR-5 ovarian)	TGI (RXF 393 renal)	TGI (SF-539 CNS)	TGI (SK-MEL-5 melanoma)	TGI (U251 CNS)	TGI (UO-31 renal)
COC(=O)C1C=CCON2CCc3c(n(C)c4ccccc34)C12 (configuration not stated)	> 100 µM	> 100 µM	> 100 µM	> 100 µM	> 100 µM	> 100 µM	> 100 µM	> 100 µM	> 100 µM	> 100 µM	> 100 µM	> 100 µM	> 100 µM	> 100 µM	> 100 µM	> 100 µM
Oc1ccc(Cl)cc1-c1cc(-c2ccccc2)nc(NCN2CCCCC2)n1	> 100 µM	> 100 µM	> 100 µM	> 100 µM	> 100 µM	> 100 µM	> 100 µM	> 100 µM	> 100 µM	> 100 µM	> 100 µM	> 100 µM	> 100 µM	> 100 µM	> 100 µM	> 100 µM
COC(=O)/C=C\C(C#N)(C#N)N=Cc1ccccc1	3.22 µM	33.1 µM	34.3 µM	6.35 µM	3.4 µM	8.79 µM	3.74 µM	15 µM	4.88 µM	13.5 µM	38.7 µM	4.28 µM	9.71 µM	28 µM	35.6 µM	7.23 µM
COC(=O)[C@H]1NC(=O)CCSSC1(C)C	> 100 µM	> 100 µM	> 100 µM	> 100 µM	> 100 µM	> 100 µM	> 100 µM	> 100 µM	> 100 µM	> 100 µM	> 100 µM	> 100 µM	> 100 µM	> 100 µM	> 100 µM	> 100 µM
C(=N\Nc1ccc(-c2nc3ccccc3[nH]2)cc1)/c1c(-c2ccc(Cc3ccccc3)cc2)[nH]c2ccccc12	> 42.6 µM	33.3 µM	> 100 µM	> 79.8 µM	> 68.4 µM	> 100 µM	25.7 µM	> 100 µM	23.2 µM	> 93.6 µM	> 100 µM	14.5 µM	44.6 µM	> 52.8 µM	> 51.2 µM	49.2 µM
C=CCc1cc(-c2cc(CC=C)c(O)c(CN(CC)CC)c2)cc(CN(CC)CC)c1O	> 100 µM	> 100 µM	> 100 µM	> 100 µM	55.9 µM	51.7 µM	96.9 µM	> 100 µM	32.8 µM	> 100 µM	52.6 µM	52 µM	54.3 µM	25.9 µM	> 100 µM	44.3 µM
O=C1C=CC(=C(c2ccc(O)cc2)c2ccc(O)cc2)C=C1	26.5 µM	32 µM	53.3 µM	28.7 µM	22.7 µM	28.6 µM	9.27 µM	14.2 µM	24.9 µM	27.6 µM	32.3 µM	16.9 µM	23.6 µM	19.8 µM	22.6 µM	31.1 µM
